Bridge positions count the residues as written; N and C are the ends. Square brackets hold non-standard residues; d marks the D form. Peptide text beside a SMILES is read from it. * marks the point of attachment. X1 = CC[C@H](C)CCCCC(=O)*; Dab = NCC[C@H](N)C(=O)O

A short description of data set [1]: Degree of destruction of kidney tissue: urinary NGAL and NAG (ELISA). Type of data set: in vivo, rats. Here is the method:
The degree of destruction of kidney tissue was determined by the concentration in the urine of acetyl-beta-glucosaminidase (N-acetyl-beta-d-glucosaminidase) (NAG) and neutrophilic gelatinase-associated lipocalin (neutrophil gelatinase-associated lipocalin) (NGAL) (Table 5).
The concentrations of NGAL and NAG in urine were determined using ELISA-text systems on a StatFax303+reader.

Data set [2] can be described thus: Accumulation of colistin in the kidneys after intravenous injection. The format is in vivo. The following applies: rats, colistin 0.5 mg/kg, SCDC 2 mg/kg. As to the method: In this experiment was determined, the accumulation of colistin in the kidneys of rats after intravenous injection of Polyfro (colistin, SCDC and liposomal cholecalciferol). Concentrations of colistin (CC), SCDC/cholecalciferol (CCF) were used based on preliminary modeling (the number of binding sites in one molecule, multiplied by their number in one megalin molecule, the molecular weight of megalin and the approximate amount of megalin in one kidney and the weight of the kidney) The result was the required amount of SCDC about 2 mg/kg of weight. For CS, a subtoxic dose was selected (based on the instructions). This is an experiment on the “displacement” of polymyxin from the kidneys with a synergistic combination of SCDC/HCF. As a result, about half of the polymyxin was displaced from the kidneys by SCDC/HCF. All components of CC, SCDC/CCF were determined in the sediment of renal homogenate and supernatant by HPLC. […] The content of colistin in the kidneys (A) and its concentration in terms of the weight of the kidneys (μg/g) (B) are shown in FIG. 1.
All data are statistically significant and differences between groups and controls are significant.

The target of data set [3] is T1, megalin of rat kidney homogenate (Rattus norvegicus, UniProt P98158).
T1 construct: megalin of rat kidney homogenate; from tissue; host or cells: rat kidney homogenate
As to the kind of experiment: Binding of cyanocobalamin derivatives to renal megalin (micromethod in Eppendorf tubes, HPLC of supernatant). The following applies: derivative in supernatant after centrifugation determined by HPLC. As to the method: The test was carried out by a micromethod in Eppendorf tubes on the ability of cyanocobalamin derivatives to bind to megalin: after centrifugation, the bound derivative together with megalin remained in the sediment, and the percentage of the remaining unreacted cyanocobalamin derivative in the supernatant was determined using HPLC on a Milichrom A-02 liquid chromatograph.

Setting [4] is: Table 5, rats, i.v. 1 time per day for 10 days, 0.5/15 mg/kg polymyxin/SCDC.

T1 sequence (P98158 26-4660): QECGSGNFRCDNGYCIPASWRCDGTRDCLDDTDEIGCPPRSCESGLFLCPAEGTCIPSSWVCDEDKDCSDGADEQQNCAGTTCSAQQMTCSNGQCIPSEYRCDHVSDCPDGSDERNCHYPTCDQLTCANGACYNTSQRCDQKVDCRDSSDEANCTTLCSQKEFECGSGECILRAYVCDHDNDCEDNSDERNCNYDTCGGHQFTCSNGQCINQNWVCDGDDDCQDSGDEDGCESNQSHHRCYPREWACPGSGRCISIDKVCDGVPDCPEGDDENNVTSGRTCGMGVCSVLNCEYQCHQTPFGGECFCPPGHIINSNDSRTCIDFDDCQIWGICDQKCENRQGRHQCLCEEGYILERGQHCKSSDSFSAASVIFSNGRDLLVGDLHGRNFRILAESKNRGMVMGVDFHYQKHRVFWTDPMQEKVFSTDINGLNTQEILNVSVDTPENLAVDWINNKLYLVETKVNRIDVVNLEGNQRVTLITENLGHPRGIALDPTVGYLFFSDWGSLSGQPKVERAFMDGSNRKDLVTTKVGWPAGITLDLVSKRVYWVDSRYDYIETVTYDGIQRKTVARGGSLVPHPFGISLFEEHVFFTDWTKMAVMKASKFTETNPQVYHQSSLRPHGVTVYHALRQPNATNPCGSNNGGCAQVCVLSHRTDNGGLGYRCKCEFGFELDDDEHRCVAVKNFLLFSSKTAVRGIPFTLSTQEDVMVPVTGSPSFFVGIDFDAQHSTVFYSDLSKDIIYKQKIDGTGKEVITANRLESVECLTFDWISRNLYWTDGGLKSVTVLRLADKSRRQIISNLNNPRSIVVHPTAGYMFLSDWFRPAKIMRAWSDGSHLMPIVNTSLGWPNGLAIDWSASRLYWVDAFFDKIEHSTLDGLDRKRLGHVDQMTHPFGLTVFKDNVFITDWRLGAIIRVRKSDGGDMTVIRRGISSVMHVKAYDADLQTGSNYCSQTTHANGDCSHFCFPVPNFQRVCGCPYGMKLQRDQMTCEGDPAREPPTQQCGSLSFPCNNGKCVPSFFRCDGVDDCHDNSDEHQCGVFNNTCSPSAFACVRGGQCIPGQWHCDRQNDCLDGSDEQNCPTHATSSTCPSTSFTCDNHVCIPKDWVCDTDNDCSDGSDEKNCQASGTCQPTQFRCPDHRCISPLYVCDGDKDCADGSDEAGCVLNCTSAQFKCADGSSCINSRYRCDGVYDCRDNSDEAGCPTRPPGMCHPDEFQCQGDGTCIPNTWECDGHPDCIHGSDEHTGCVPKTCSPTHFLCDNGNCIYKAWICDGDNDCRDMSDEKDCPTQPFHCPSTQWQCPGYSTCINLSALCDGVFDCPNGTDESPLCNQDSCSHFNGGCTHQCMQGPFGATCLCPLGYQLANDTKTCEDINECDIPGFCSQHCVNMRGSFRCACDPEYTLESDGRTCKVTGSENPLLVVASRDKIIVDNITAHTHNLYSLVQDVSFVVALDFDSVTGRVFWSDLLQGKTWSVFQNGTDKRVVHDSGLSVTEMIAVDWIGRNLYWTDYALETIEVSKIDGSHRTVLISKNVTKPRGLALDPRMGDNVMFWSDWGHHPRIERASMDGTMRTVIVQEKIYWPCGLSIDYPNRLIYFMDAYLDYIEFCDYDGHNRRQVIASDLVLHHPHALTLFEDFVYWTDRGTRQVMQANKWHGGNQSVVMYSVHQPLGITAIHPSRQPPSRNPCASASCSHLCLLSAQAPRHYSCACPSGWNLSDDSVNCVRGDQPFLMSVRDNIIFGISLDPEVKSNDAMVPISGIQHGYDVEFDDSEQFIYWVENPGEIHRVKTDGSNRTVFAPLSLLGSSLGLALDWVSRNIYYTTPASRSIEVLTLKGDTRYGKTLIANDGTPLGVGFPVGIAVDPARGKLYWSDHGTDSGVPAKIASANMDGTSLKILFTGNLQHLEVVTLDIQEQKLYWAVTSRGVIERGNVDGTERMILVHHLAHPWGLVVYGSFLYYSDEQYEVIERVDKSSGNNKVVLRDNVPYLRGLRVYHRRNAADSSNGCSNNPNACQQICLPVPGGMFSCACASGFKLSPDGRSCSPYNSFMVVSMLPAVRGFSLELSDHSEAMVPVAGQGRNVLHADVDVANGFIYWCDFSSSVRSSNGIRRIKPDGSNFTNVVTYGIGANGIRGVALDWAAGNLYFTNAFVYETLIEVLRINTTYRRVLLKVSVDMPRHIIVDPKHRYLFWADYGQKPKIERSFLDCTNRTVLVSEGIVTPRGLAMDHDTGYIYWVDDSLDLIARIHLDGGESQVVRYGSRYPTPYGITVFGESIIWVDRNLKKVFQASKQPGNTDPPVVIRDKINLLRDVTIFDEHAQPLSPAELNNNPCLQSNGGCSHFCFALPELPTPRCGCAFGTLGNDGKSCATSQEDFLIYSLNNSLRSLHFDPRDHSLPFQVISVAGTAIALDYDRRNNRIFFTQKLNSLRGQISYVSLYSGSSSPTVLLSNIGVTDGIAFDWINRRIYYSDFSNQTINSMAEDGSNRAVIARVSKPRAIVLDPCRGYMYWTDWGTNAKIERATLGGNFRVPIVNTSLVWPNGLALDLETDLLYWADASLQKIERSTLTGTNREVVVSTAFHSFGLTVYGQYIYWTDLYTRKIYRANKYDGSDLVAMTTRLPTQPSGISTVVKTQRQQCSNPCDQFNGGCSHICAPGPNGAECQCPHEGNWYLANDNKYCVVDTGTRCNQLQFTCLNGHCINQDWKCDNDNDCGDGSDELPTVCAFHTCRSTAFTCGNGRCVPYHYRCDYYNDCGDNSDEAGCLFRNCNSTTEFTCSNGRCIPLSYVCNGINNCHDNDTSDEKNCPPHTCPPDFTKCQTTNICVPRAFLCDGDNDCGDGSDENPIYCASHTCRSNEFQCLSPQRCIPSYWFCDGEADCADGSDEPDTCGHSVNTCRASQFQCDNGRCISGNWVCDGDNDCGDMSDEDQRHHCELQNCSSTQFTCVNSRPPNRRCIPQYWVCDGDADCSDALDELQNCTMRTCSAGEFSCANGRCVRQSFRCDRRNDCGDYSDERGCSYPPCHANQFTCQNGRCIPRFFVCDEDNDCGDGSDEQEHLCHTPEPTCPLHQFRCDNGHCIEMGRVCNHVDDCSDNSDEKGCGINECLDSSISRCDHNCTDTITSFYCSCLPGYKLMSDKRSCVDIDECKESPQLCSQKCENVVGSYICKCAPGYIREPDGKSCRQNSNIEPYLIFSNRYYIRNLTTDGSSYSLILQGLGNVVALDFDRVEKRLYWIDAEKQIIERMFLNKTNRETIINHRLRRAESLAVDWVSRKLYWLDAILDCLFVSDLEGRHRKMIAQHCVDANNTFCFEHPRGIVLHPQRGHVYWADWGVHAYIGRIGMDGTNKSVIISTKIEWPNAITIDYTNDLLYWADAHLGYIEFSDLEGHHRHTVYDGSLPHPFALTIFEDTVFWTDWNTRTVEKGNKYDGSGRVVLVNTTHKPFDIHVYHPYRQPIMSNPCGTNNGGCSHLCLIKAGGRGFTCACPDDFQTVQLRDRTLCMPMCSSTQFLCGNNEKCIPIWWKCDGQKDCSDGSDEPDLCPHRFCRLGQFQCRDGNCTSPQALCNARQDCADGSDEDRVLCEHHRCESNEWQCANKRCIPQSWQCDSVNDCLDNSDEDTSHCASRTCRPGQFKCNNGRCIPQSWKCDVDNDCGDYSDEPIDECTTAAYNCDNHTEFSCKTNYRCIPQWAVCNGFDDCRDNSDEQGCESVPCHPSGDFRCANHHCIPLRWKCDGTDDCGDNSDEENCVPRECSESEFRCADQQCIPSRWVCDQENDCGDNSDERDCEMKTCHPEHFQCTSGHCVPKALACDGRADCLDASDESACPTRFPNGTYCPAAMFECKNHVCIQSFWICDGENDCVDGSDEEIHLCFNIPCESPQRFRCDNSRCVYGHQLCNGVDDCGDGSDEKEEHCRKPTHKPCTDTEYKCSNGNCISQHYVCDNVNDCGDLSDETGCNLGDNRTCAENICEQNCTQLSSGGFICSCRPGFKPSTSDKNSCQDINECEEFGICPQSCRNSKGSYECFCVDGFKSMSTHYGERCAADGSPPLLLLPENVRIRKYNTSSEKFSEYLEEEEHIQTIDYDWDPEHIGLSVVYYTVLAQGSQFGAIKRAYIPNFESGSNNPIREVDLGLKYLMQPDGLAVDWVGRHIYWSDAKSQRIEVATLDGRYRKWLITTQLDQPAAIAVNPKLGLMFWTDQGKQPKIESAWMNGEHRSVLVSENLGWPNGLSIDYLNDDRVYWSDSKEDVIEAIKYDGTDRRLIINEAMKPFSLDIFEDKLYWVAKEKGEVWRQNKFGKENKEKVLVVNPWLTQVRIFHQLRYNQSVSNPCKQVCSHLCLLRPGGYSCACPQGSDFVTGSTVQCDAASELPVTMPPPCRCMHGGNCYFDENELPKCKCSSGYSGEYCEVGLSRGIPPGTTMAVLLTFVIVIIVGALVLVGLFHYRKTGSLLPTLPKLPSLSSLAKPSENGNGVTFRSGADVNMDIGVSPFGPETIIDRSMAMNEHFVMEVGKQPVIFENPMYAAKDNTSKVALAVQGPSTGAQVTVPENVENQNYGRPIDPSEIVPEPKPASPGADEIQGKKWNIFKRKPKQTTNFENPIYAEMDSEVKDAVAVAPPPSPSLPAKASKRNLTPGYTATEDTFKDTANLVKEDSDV

In the case of `CC[C@H](C)CCCCC(=O)N[C@@H](CCN)C(=O)N[C@H](C(=O)N[C@@H](CCN)C(=O)N[C@H]1CCNC(=O)[C@H]([C@@H](C)O)NC(=O)[C@H](CCN)NC(=O)[C@H](CCN)NC(=O)[C@H](CC(C)C)NC(=O)[C@@H](CC(C)C)NC(=O)[C@H](CCN)NC1=O)[C@@H](C)O` [Colistin, colistin] (X1-[Dab]T[Dab][Dab][Dab][dL]L[Dab][Dab]T; lactam 4-C), in data set [1] (setting [4]), the “Urinary Excretion of NGAL” value was determined as 775 ± 33 µg/h and the “Urinary NAG Excretion” value is 2578 ± 95 µg/h. Besides, in data set [1] (Table 6, n = 15), the “Urinary Excretion of NGAL” value is 775 ± 33 µg/h and the “Urinary NAG Excretion” value was 2578 ± 95 µg/h. Besides, the “Accumulation of colistin in the kidneys” value in data set [2] came to 20.5 ± 2.5 µg.
For the compound cyanocobalamin [derivative 11], in data set [3], the “% bound derivative” value was 52%.
For “triacetyl-cyanocobalamin [derivative 31]”, the “% bound derivative” value in data set [3] came out at 7%.
On the same count and under the same terms, under “trisuccinyl-cyanocobalamin [derivative 30]” stands 6%.

(Values after US11191806B2, “Polymyxin-based pharmaceutical composition for treating infectious diseases” (priority 2018, dated 2021).)
